Source: the NIST ThermoML archive (doi:10.1016/j.jct.2008.11.003)

Experiments:
[1] = 101.33 kPa, Liquid; for mass density: Vibrating tube method; for viscosity: Cone and plate viscometry
[2] = refractive index (Na D-line) (dimensionless); settings: 101.33 kPa, Liquid, Standard Abbe refractometry

CC(=O)[O-].OCC[NH2+]CCO [2,2'-azanediylbis(ethanol) acetate]
Settings | mass density [kg/m3] | refractive index | viscosity [mPa·s]
[1], 293.15 K | 1173.85 | – | –
[1], 298.2 K | – | – | 566.89
[1], 303.15 K | 1166.39 | – | –
[1], 303.2 K | – | – | 376.59
[1], 308.2 K | – | – | 260.02
[1], 313.15 K | 1160.12 | – | –
[1], 313.2 K | – | – | 183.97
[1], 318.2 K | – | – | 136.06
[1], 323.15 K | 1153.96 | – | –
[1], 323.2 K | – | – | 101.06
[1], 328.2 K | – | – | 78.35
[1], 333.15 K | 1147.64 | – | –
[1], 333.2 K | – | – | 60.25
[1], 338.2 K | – | – | 48.79
[1], 343.15 K | 1141.22 | – | –
[1], 343.2 K | – | – | 38.65
[1], 348.2 K | – | – | 31.51
[1], 353.15 K | 1134.66 | – | –
[1], 363.15 K | 1127.97 | – | –
[2], 293.15 K | – | 1.43431 | –
[2], 298.15 K | – | 1.43338 | –
[2], 303.15 K | – | 1.43238 | –
[2], 308.15 K | – | 1.43137 | –
[2], 313.15 K | – | 1.43029 | –
[2], 318.15 K | – | 1.42916 | –
[2], 323.15 K | – | 1.42798 | –
[2], 328.15 K | – | 1.42673 | –
[2], 333.15 K | – | 1.42547 | –

CC(=O)[O-].[NH3+]CCO [2-hydroxyethylammonium acetate]
Settings | mass density [kg/m3] | refractive index | viscosity [mPa·s]
[1], 293.15 K | 1148.66 | – | –
[1], 298.2 K | – | – | 313.15
[1], 303.15 K | 1143.39 | – | –
[1], 303.2 K | – | – | 224.68
[1], 308.2 K | – | – | 162.91
[1], 313.15 K | 1138.02 | – | –
[1], 313.2 K | – | – | 120.26
[1], 318.2 K | – | – | 92.56
[1], 323.15 K | 1132.52 | – | –
[1], 323.2 K | – | – | 70.68
[1], 328.2 K | – | – | 56.56
[1], 333.15 K | 1126.94 | – | –
[1], 333.2 K | – | – | 43.91
[1], 338.2 K | – | – | 34.98
[1], 343.15 K | 1121.26 | – | –
[1], 343.2 K | – | – | 29.04
[1], 348.2 K | – | – | 24.05
[1], 353.15 K | 1115.47 | – | –
[1], 363.15 K | 1109.55 | – | –
[2], 293.15 K | – | 1.43775 | –
[2], 298.15 K | – | 1.43682 | –
[2], 303.15 K | – | 1.43593 | –
[2], 308.15 K | – | 1.4351 | –
[2], 313.15 K | – | 1.43428 | –
[2], 318.15 K | – | 1.43356 | –
[2], 323.15 K | – | 1.43287 | –
[2], 328.15 K | – | 1.43223 | –
[2], 333.15 K | – | 1.43164 | –

CC(O)C(=O)[O-].[NH3+]CCO (stereo not given) [2-hydroxyethylammonium lactate]
Settings | mass density [kg/m3] | refractive index | viscosity [mPa·s]
[1], 293.15 K | 1204.52 | – | –
[1], 298.2 K | – | – | 254.25
[1], 303.15 K | 1197.84 | – | –
[1], 303.2 K | – | – | 181.45
[1], 308.2 K | – | – | 133.32
[1], 313.15 K | 1191.86 | – | –
[1], 313.2 K | – | – | 100.02
[1], 318.2 K | – | – | 76.88
[1], 323.15 K | 1185.78 | – | –
[1], 323.2 K | – | – | 60.18
[1], 328.2 K | – | – | 48.12
[1], 333.15 K | 1179.64 | – | –
[1], 333.2 K | – | – | 38.12
[1], 338.2 K | – | – | 31.02
[1], 343.15 K | 1173.45 | – | –
[1], 343.2 K | – | – | 24.98
[1], 348.2 K | – | – | 21.26
[1], 353.15 K | 1167.19 | – | –
[1], 363.15 K | 1160.86 | – | –
[2], 293.15 K | – | 1.43858 | –
[2], 298.15 K | – | 1.43758 | –
[2], 303.15 K | – | 1.43658 | –
[2], 308.15 K | – | 1.43557 | –
[2], 313.15 K | – | 1.43455 | –
[2], 318.15 K | – | 1.43354 | –
[2], 323.15 K | – | 1.43252 | –
[2], 328.15 K | – | 1.43148 | –
[2], 333.15 K | – | 1.43043 | –

CC(=O)[O-].C[NH+](CCO)CCO [N-methyldiethanolammonium acetate]
Settings | mass density [kg/m3] | refractive index | viscosity [mPa·s]
[1], 293.15 K | 1141.42 | – | –
[1], 298.2 K | – | – | 198.91
[1], 303.15 K | 1132.76 | – | –
[1], 303.2 K | – | – | 144.69
[1], 308.2 K | – | – | 108.33
[1], 313.15 K | 1125.85 | – | –
[1], 313.2 K | – | – | 83.56
[1], 318.2 K | – | – | 64.12
[1], 323.15 K | 1118.75 | – | –
[1], 323.2 K | – | – | 50.96
[1], 328.2 K | – | – | 40.45
[1], 333.15 K | 1111.46 | – | –
[1], 333.2 K | – | – | 32.15
[1], 338.2 K | – | – | 25.98
[1], 343.15 K | 1103.98 | – | –
[1], 343.2 K | – | – | 22.32
[1], 348.2 K | – | – | 18.45
[1], 353.15 K | 1096.28 | – | –
[1], 363.15 K | 1088.36 | – | –
[2], 293.15 K | – | 1.43302 | –
[2], 298.15 K | – | 1.43215 | –
[2], 303.15 K | – | 1.43122 | –
[2], 308.15 K | – | 1.43023 | –
[2], 313.15 K | – | 1.42922 | –
[2], 318.15 K | – | 1.42813 | –
[2], 323.15 K | – | 1.42702 | –
[2], 328.15 K | – | 1.42583 | –
[2], 333.15 K | – | 1.42462 | –

CC(O)C(=O)O.OCCNCCO [diethanolamine lactate]
Settings | mass density [kg/m3] | refractive index | viscosity [mPa·s]
[1], 293.15 K | 1206.34 | – | –
[1], 298.2 K | – | – | 288.56
[1], 303.15 K | 1198.77 | – | –
[1], 303.2 K | – | – | 204.15
[1], 308.2 K | – | – | 148.54
[1], 313.15 K | 1192.47 | – | –
[1], 313.2 K | – | – | 110.25
[1], 318.2 K | – | – | 84.34
[1], 323.15 K | 1186.14 | – | –
[1], 323.2 K | – | – | 65.45
[1], 328.2 K | – | – | 51.78
[1], 333.15 K | 1179.73 | – | –
[1], 333.2 K | – | – | 42.15
[1], 338.2 K | – | – | 33.45
[1], 343.15 K | 1173.25 | – | –
[1], 343.2 K | – | – | 27.15
[1], 348.2 K | – | – | 22.45
[1], 353.15 K | 1166.69 | – | –
[1], 363.15 K | 1160.03 | – | –
[2], 293.15 K | – | 1.44156 | –
[2], 298.15 K | – | 1.44142 | –
[2], 303.15 K | – | 1.44109 | –
[2], 308.15 K | – | 1.44056 | –
[2], 313.15 K | – | 1.43983 | –
[2], 318.15 K | – | 1.43891 | –
[2], 323.15 K | – | 1.43776 | –
[2], 328.15 K | – | 1.43642 | –
[2], 333.15 K | – | 1.43489 | –
